Source: ChEMBL document CHEMBL5154901, “Development of Predictive Classification Models for Whole Cell Antimycobacterial Activity of Benzothiazinones” (J Med Chem, 2022)
≈ marks a conversion by molar mass, not a printed value.

What was measured:
[1] = test system: Mycolicibacterium vaccae; experiment: Antimycobacterial activity against Mycobacterium vaccae (JMRC:STI:10670) assessed as reduction in bacterial growth incubated for 42 hrs by serial dilution method; type: functional
[2] = Cytotoxicity against human HeLa cells assessed as reduction in cell viability incubated for 72 hrs by methylene blue staining based colorimetric assay; type: toxicity
[3] = Mycolicibacterium vaccae, JMRC:STI:10670, read-out: MIC

Compound	MIC [1, 3]	CC50 at 72 h [2]	MIC [1]
CN(c1ccc(CCO)cc1)c1nc(=O)c2cc(C(F)(F)F)cc([N+](=O)[O-])c2s1	7.33 µM (≈ 3.12 µg/mL)	–	–
COc1cc2c(cc1OC)[C@@H](C[C@@H](O)c1ccccc1)N(c1nc(=O)c3cc(C(F)(F)F)cc([N+](=O)[O-])c3s1)CC2	0.0425 µM (≈ 0.025 µg/mL)	> 85 µM	–
O=c1nc(N2CC[C@](O)(COc3ccc(F)cc3)[C@@H](O)C2)sc2c([N+](=O)[O-])cc(C(F)(F)F)cc12	0.0243 µM (≈ 0.0125 µg/mL)	34.3 µM	–
O=c1nc(N2CC[C@@](O)(c3ccccc3)[C@H](O)C2)sc2c([N+](=O)[O-])cc(C(F)(F)F)cc12	0.0535 µM (≈ 0.025 µg/mL)	68.5 µM	–
O=c1nc(N2CCn3cc(-c4ccccc4)nc3C2)sc2c([N+](=O)[O-])cc(C(F)(F)F)cc12	–	–	53 10^3nM
CCn1c(-c2ccccc2)nc2c1CN(c1nc(=O)c3cc(C(F)(F)F)cc([N+](=O)[O-])c3s1)C2	3.2 µM (≈ 1.56 µg/mL)	–	–
O=c1nc(N2CCn3cc(C(F)(F)F)nc3C2)sc2c([N+](=O)[O-])cc(C(F)(F)F)cc12	0.0838 µM (≈ 0.039 µg/mL)	> 107 µM	–
O=c1nc(N2CC[C@@H](c3ccccc3)[C@H](O)C2)sc2c([N+](=O)[O-])cc(C(F)(F)F)cc12	0.0277 µM (≈ 0.0125 µg/mL)	> 93 µM	–
O=c1nc(N2CCN(S(=O)(=O)c3ccc(OC(F)(F)F)cc3)CC2)sc2c([N+](=O)[O-])cc(C(F)(F)F)cc12	0.0274 µM (≈ 0.016 µg/mL)	31.5 µM	–
O=c1nc(N2CCn3nnc(-c4ccccc4)c3C2)sc2c([N+](=O)[O-])cc(C(F)(F)F)cc12	1.64 µM (≈ 0.778 µg/mL)	–	–
CN1CCC(CCC2CCN(c3nc(=O)c4cc(C(F)(F)F)cc([N+](=O)[O-])c4s3)CC2)CC1	0.206 µM (≈ 0.0998 µg/mL)	–	–
O=c1nc(N2CC[C@@H](c3ccc(F)cc3)[C@H](O)C2)sc2c([N+](=O)[O-])cc(C(F)(F)F)cc12	0.0132 µM (≈ 0.0062 µg/mL)	68.4 µM	–
CN(c1ccc(CO)cc1)c1nc(=O)c2cc(C(F)(F)F)cc([N+](=O)[O-])c2s1	30.4 µM (≈ 12.5 µg/mL)	–	–
CN1CCN(c2nc(=O)c3cc(C(F)(F)F)cc([N+](=O)[O-])c3s2)CC1	0.267 µM (≈ 0.0999 µg/mL)	–	–
O=C(c1ccc2cn[nH]c2c1)N1CCN(c2nc(=O)c3cc(C(F)(F)F)cc([N+](=O)[O-])c3s2)CC1	3.09 µM (≈ 1.56 µg/mL)	–	–
CN1CCN(C(=O)CCC(=O)N2CCN(c3nc(=O)c4cc(C(F)(F)F)cc([N+](=O)[O-])c4s3)CC2)CC1	–	–	5.8 10^3nM
O=c1nc(N2CCn3nc(-c4ccccc4)nc3C2)sc2c([N+](=O)[O-])cc(C(F)(F)F)cc12	105 µM (≈ 49.8 µg/mL)	–	–
CCCCCCN(C)c1nc(=O)c2cc(C(F)(F)F)cc([N+](=O)[O-])c2s1	0.0321 µM (≈ 0.0125 µg/mL)	75.5 µM	–
O=c1nc(N2CCN(CC(F)(F)c3ccc(F)cc3)CC2)sc2c([N+](=O)[O-])cc(C(F)(F)F)cc12	0.0154 µM (≈ 0.00798 µg/mL)	87.2 µM	–

Compound	MIC [1, 3]	CC50 at 72 h [2]	MIC [1]
O=c1nc(N2CCC(O)CC2)sc2c([N+](=O)[O-])cc(C(F)(F)F)cc12	–	–	1.1 10^3nM
O=C(c1ccc2[nH]ncc2c1)N1CCN(c2nc(=O)c3cc(C(F)(F)F)cc([N+](=O)[O-])c3s2)CC1	6.19 µM (≈ 3.12 µg/mL)	–	–
CC(C)n1c(-c2ccccc2)nc2c1CN(c1nc(=O)c3cc(C(F)(F)F)cc([N+](=O)[O-])c3s1)C2	0.798 µM (≈ 0.4 µg/mL)	–	–
CN1CCN(C(=O)CCCC(=O)N2CCN(c3nc(=O)c4cc(C(F)(F)F)cc([N+](=O)[O-])c4s3)CC2)CC1	11.2 µM (≈ 6.23 µg/mL)	–	–
O=C(O)c1ccccc1N1CCN(c2nc(=O)c3cc(C(F)(F)F)cc([N+](=O)[O-])c3s2)CC1	6.49 µM (≈ 3.12 µg/mL)	–	–
O=c1nc(Nc2ccc(CCO)cc2)sc2c([N+](=O)[O-])cc(C(F)(F)F)cc12	15.2 µM (≈ 6.25 µg/mL)	–	–
O=C(c1cccc2[nH]ncc12)N1CCN(c2nc(=O)c3cc(C(F)(F)F)cc([N+](=O)[O-])c3s2)CC1	1.55 µM (≈ 0.782 µg/mL)	–	–
O=c1nc(Nc2ccccc2)sc2c([N+](=O)[O-])cc(C(F)(F)F)cc12	68.1 µM (≈ 25 µg/mL)	–	–
CN(c1ccc(CN)cc1)c1nc(=O)c2cc(C(F)(F)F)cc([N+](=O)[O-])c2s1	3.8 µM (≈ 1.56 µg/mL)	–	–
Cn1c(-c2ccccc2)nc2c1CN(c1nc(=O)c3cc(C(F)(F)F)cc([N+](=O)[O-])c3s1)C2	–	–	13 10^3nM
O=C(CN1CCN(c2nc(=O)c3cc(C(F)(F)F)cc([N+](=O)[O-])c3s2)CC1)N1CCOCC1	0.205 µM (≈ 0.0999 µg/mL)	–	–
CN1CCN(C(=O)CC(C)(C)CC(=O)N2CCN(c3nc(=O)c4cc(C(F)(F)F)cc([N+](=O)[O-])c4s3)CC2)CC1	5.34 µM (≈ 3.12 µg/mL)	–	–
O=c1nc(N2CCn3c(nnc3-c3ccccc3)C2)sc2c([N+](=O)[O-])cc(C(F)(F)F)cc12	0.0527 µM (≈ 0.025 µg/mL)	–	–
O=c1nc(N2CCC(CO)CC2)sc2c([N+](=O)[O-])cc(C(F)(F)F)cc12	2 µM (≈ 0.779 µg/mL)	–	–
O=C(O)[C@@H]1CN(c2nc(=O)c3cc(C(F)(F)F)cc([N+](=O)[O-])c3s2)Cc2ccccc21	–	–	3.5 10^3nM
O=c1nc(N2CCc3nc(-c4ccccc4)ncc3C2)sc2c([N+](=O)[O-])cc(C(F)(F)F)cc12	–	–	26 10^3nM
CN1CCC(OC2CCN(c3nc(=O)c4cc(C(F)(F)F)cc([N+](=O)[O-])c4s3)CC2)CC1	–	–	6.6 10^3nM
Cc1nnc2n1CCN(c1nc(=O)c3cc(C(F)(F)F)cc([N+](=O)[O-])c3s1)C2	3.78 µM (≈ 1.56 µg/mL)	–	–
